The target of series [1] is T1, Stearoyl-CoA Desaturase (SCD1) (Mus musculus, UniProt P13516).
T1 construct: Reactions are started by adding 50 μL of microsomes (1.25 mg/mL); from tissue; host or cells: liver microsomes of male ICR outbred mice on a high-carbohydrate, low-fat diet
T1 sequence (P13516 1-355): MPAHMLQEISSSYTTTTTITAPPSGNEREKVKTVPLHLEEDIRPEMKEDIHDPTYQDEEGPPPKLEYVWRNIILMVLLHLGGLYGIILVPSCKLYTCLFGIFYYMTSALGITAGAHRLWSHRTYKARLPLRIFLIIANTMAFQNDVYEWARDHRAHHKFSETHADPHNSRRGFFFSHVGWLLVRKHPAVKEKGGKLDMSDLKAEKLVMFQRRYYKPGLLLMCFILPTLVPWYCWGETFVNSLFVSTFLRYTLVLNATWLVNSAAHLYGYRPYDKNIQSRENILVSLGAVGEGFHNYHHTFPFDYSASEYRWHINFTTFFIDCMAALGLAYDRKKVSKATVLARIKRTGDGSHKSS
The series can be described thus: SCD microsomal assay: release of 3H2O from [9,10-3H]stearoyl-CoA in mouse liver microsomes. Conditions: 15 min incubation, 25° C. It counts as biochemical. An excerpt: Measuring Stearoyl-CoA Desaturase Inhibition Activity of a Test Compound Using Mouse Liver Microsomes
The identification of compounds of the invention as SCD inhibitors was readily accomplished using the SCD microsomal assay procedure described in Shanklin J. and Summerville C., Proc. Natl. Acad. Sci. USA (1991), Vol. 88, pp. 2510-2514.
Male ICR outbread mice, on a high-carbohydrate, low fat diet, under light halothane (15% in mineral oil) anesthesia are sacrificed by exsanguination during periods of high enzyme activity. Livers are immediately rinsed with cold 0.9% NaCl solution, weighed and minced with scissors. All procedures are performed at 4° C. unless specified otherwise. Livers are homogenized in a solution (1/3 w/v) containing 0.25 M sucrose, 62 mM potassium phosphate buffer (pH 7.0), 0.15 M KCl, 15 mM N-acetyleysteine, 5 mM MgCl2, and 0.1 mM EDTA using 4 strokes of a Potter-Elvehjem tissue homogenizer. The homogenate is centrifuged at 10,400×g for 20 min to eliminate mitochondria and cellular debris. The supernatant is filtered through a 3-layer cheesecloth and centrifuged at 105,000×g for 60 min. The microsomal pellet is gently resuspended in the same homogenization solution with a small glass/teflon homogenizer and stored at −70° C. The absence of mitochondrial contamination is enzymatically assessed. The protein concentration is measured using bovine serum albumin as the standard.
Desaturase activity is measured as the release of ^3H2O from [9,10-^3H]stearoyl-CoA. Reactions per assay point conditions are as follows: 2 μL 1.5 mM stearoyl-CoA, 0.25 μL 1 mCi/mL ^3H stearoyl CoA, 10 μL 20 mM NADH, 36.75 μL 0.1 M PK buffer (K2HPO4/NaH2PO4, pH 7.2). The test compound or control solution is added in a 1 μL volume. Reactions are started by adding 50 μL of microsomes (1.25 mg/mL). The plates are mixed and after 15 min incubation on a heating block (25° C.), the reactions are stopped by the addition of 10 μL 60% PCA. An aliquot of 100 μL is then transferred to a filter plate pretreated with charcoal and the plate centrifuged at 4000 rpm for 1 minute. The flow through containing the ^3H2O released by the SCD1 desaturation reaction is added to scintillation fluid and the radioactivity measured in a Packard TopCount. The data is analysed to identify the IC50 for test compounds and reference compounds.
In general terms: Liver microsomes are vesicles of endoplasmic reticulum, rich in cytochrome P450 enzymes.

pIC50: −log10 of the molar value. Counter-ions that a name gives are not always drawn.

On to `O=C(NCc1ccncc1)c1ccnc(N2CCN(CC3CC3)C2=O)c1` [Example 15.11, 2-(3-(cyclopropylmethyl)-2-oxoimidazolidin-1-yl)-N-(pyridin-4-ylmethyl)isonicotinamide], for which the melting point (usually the temperature of the solid-liquid transition) fell in the range of 160 to 162 °C. Besides, the pIC50 – broadly, the IC50 on a negative log10 scale, so that one unit is a factor of ten – in series [1] was 6.17.

`O=C(NCc1cncs1)c1ccnc(N2CCN(Cc3ccc(C(F)(F)F)cc3)C2=O)c1` [Example 26.19, 2-(2-Oxo-3-(4-(trifluoromethyl)benzyl)imidazolidin-1-yl)-N-(thiazol-5-ylmethyl)-isonicotinamide] had a melting point of 163 to 165 °C. In series [1], this molecule showed a pIC50 of 8.00. Consider `O=C(NCc1ccc(F)c(F)c1)c1ccnc(N2CCN(Cc3cccnc3)C2=O)c1` [Example 15.17, N-(3,4-difluorobenzyl)-2-(2-oxo-3-(pyridin-3-ylmethyl)imidazolidin-1-yl)isonicotinamide], for which the melting point was in the range of 178 to 180 °C. This molecule had a pIC50 in series [1] of 6.59. Regarding `CN(C)c1ccc(C(=O)Nc2cc(C(=O)NCc3ccccc3)ccn2)cc1` [Example 6.11, N-benzyl-2-(4-(dimethylamino)benzamido)isonicotinamide], the melting point lay within 160 to 165 °C. This molecule gave a pIC50 in series [1] of 7.70.

The molecule `O=C(NCc1ccccn1)c1ccnc(-n2cnn(Cc3ccc(F)c(F)c3)c2=O)c1` [Example 26.29, 2-(1-(3,4-Difluorobenzyl)-5-oxo-1H-1,2,4-triazol-4(5H)-yl)-N-(pyridin-2-ylmethyl)-isonicotinamide] had a pIC50 in series [1] of 7.52.

In the case of `O=C(NCc1ccccc1)c1ccnc(-n2ccc(O)cc2=O)c1` [Example 20, 4-hydroxy-2-oxo-2H-[1,2′]bipyridinyl-4′-carboxylic acid benzylamide], the melting point fell in the range of 102 to 105 °C. The same measure, in the same setting: to `O=C(NCc1ccccc1)c1ccnc(NC(=O)C2CCCC2)c1` [Example 6.2, N-benzyl-2-(cyclopentanecarboxamido)isonicotinamide] belongs 55 to 57 °C. For the molecule `O=C(NCc1ccccn1)c1ccnc(N2CCN(Cc3ccc(F)cc3)C2=O)c1` [Example 15.3, 2-(3-(4-fluorobenzyl)-2-oxoimidazolidin-1-yl)-N-(pyridin-2-ylmethyl)isonicotinamide dihydrochloride], the pIC50 in series [1] is 7.15. In turn, `Cc1c[nH]c(-c2ccnc(NC(=O)c3ccccc3)c2)n1` [Example 10, N-(4-(4-methyl-1H-imidazol-2-yl)pyridin-2-yl)benzamide] displayed a melting point of 133 to 135 °C. As for `COc1cc(C(=O)NCc2ccccc2)cc(NC(=O)c2ccccc2)n1` [Example 6.17, 2-benzamido-N-benzyl-6-methoxyisonicotinamide], the melting point lay in the range of 132 to 133 °C. The same measure, in the same setting: under `O=C(Nc1cc(-c2nnc(Cc3ccccc3)o2)ccn1)c1ccccc1` [Example 11.1, N-[4-(5-benzyl-[1,3,4]oxadiazol-2-yl)-pyridin-2-yl]benzamide] stands 187 to 189 °C; under `O=C(NCc1cc(-c2ccccc2)on1)c1ccnc(N2CCN(Cc3ccc(F)cc3)C2=O)c1` [Example 26.10, 2-(3-(4-Fluorobenzyl)-2-oxoimidazolidin-1-yl)-N-((5-phenylisoxazol-3-yl)methyl)-isonicotinamide], 199 to 201 °C.

In turn, `O=C(NCc1cnc(Cl)s1)c1ccnc(N2CCN(Cc3ccc(F)c(F)c3)C2=O)c1` [Example 26.33, N-((2-Chlorothiazol-5-yl)methyl)-2-(3-(3,4-difluorobenzyl)-2-oxoimidazolidin-1-yl)isonicotinamide] gave a melting point of 161 to 163 °C. Same read-out and setting: under `O=C(NCc1ccccc1)c1ccnc(-n2ccc(-c3ccccc3)cc2=O)c1` [Example 17, N-benzyl-2-(2-oxo-4-phenylpyridin-1(2H)-yl)isonicotinamide] stands 162 to 163 °C. Still for that read-out and setting: under `O=C(NCc1ccccc1)c1ccnc(NC(=O)c2ccc(C(F)(F)F)cc2)c1` [Example 5.2, N-benzyl-2-(4-trifluoromethylbenzoylamino)isonicotinamide] stands 181 to 183 °C; under `O=C(Nc1cc(-c2nc(Cc3ccccc3)no2)ccn1)c1ccccc1` [Example 12, N-[4-(3-benzyl-[1,2,4]oxadiazol-5-yl)-pyridin-2-yl]benzamide], 150 to 151 °C; under `O=C(NC[C@H](O)c1ccccc1)c1ccnc(N2CCN(Cc3ccc(F)cc3)C2=O)c1` [Example 14.12, (R)-2-(3-(4-fluorobenzyl)-2-oxoimidazolidin-1-yl)-N-(2-hydroxy-2-phenylethyl)isonicotinamide], 97 to 99 °C. The same measure, in the same setting: to `O=C(NCc1ccccc1)c1ccnc(N2CCN(Cc3ccc4nonc4c3)C2=O)c1` [Example 26.5, 2-(3-(Benzo[c][1,2,5]-oxadiazol-5-ylmethyl)-2-oxoimidazolidin-1-yl)-N-benzylisonicotinamide] belongs 165 to 167 °C. The molecule `CCCc1c[nH]c(-c2ccnc(NC(=O)c3ccccc3)c2)n1` [Example 10.1, N-(4-(4-propyl-1H-imidazol-2-yl)pyridin-2-yl)benzamide] displayed a melting point of 95 to 97 °C. The same measure, in the same setting: to `Cn1cc(CNC(=O)c2ccnc(N3CCN(Cc4ccc(F)cc4)C3=O)c2)cn1` [Example 14.8, 2-(3-(4-fluorobenzyl)-2-oxoimidazolidin-1-yl)-N-((1-methyl-1H-pyrazol-4-yl)methyl)isonicotinamide] belongs 165 to 166 °C. Still for that read-out and setting: under `Cn1ccc(CNC(=O)c2ccnc(N3CCN(Cc4ccc(F)cc4)C3=O)c2)n1` [Example 14.6, 2-(3-(4-fluorobenzyl)-2-oxoimidazolidin-1-yl)-N-((1-methyl-1H-pyrazol-3-yl)methyl)isonicotinamide] stands 79 to 81 °C; under `O=C(NCc1ccccc1)c1ccnc(N2CCN(CC3CC3)C2=O)c1` [Example 15.8, N-benzyl-2-(3-(cyclopropylmethyl)-2-oxoimidazolidin-1-yl)isonicotinamide], 121 to 123 °C. On the same count and under the same terms, to `O=C(NCc1nccs1)c1ccnc(N2CCN(Cc3ccc(F)cc3)C2=O)c1` [Example 14.3, 2-(3-(4-fluorobenzyl)-2-oxoimidazolidin-1-yl)-N-(thiazol-2-ylmethyl)isonicotinamide] belongs 123 to 125 °C. `O=C(NCc1cncs1)c1ccnc(N2CCN(Cc3ccc(F)cc3)C2=O)c1` [Example 14.1, 2-(3-(4-fluorobenzyl)-2-oxoimidazolidin-1-yl)-N-(thiazol-5-ylmethyl)isonicotinamide] returned a melting point of 148 to 150 °C. The same measure, in the same setting: under `O=C(NCc1cnc(Cl)s1)c1ccnc(N2CCN(Cc3ccc(F)cc3)C2=O)c1` [Example 26.11, N-((2-Chlorothiazol-5-yl)methyl)-2-(3-(4-fluorobenzyl)-2-oxoimidazolidin-1-yl)isonicotinamide] stands 185 to 186 °C; under `O=C(NCc1cnc(Cl)s1)c1ccnc(N2CCN(Cc3ccc(OC(F)(F)F)cc3)C2=O)c1` [Example 26.34, N-((2-Chlorothiazol-5-yl)methyl)-2-(2-oxo-3-(4-(trifluoromethoxy)-benzyl)imidazolidin-1-yl)isonicotinamide], 184 to 186 °C; under `O=C(NCc1ccc(F)cc1)c1ccnc(N2CCN(Cc3ccncc3)C2=O)c1` [Example 15.16, N-(4-fluorobenzyl)-2-(2-oxo-3-(pyridin-4-ylmethyl)imidazolidin-1-yl)isonicotinamide], 161 to 163 °C. Molecule `O=C(NCc1ccccn1)c1ccnc(N2CCN(CC3CC3)C2=O)c1` [Example 15.10, 2-(3-(cyclopropylmethyl)-2-oxoimidazolidin-1-yl)-N-(pyridin-2-ylmethyl)isonicotinamide] yielded a melting point of 122 to 123 °C. Same read-out and setting: under `O=C(NCc1ccc(F)cc1)c1ccnc(N2CCN(Cc3ccccn3)C2=O)c1` [Example 15.15, N-(4-fluorobenzyl)-2-(2-oxo-3-(pyridin-2-ylmethyl)imidazolidin-1-yl)isonicotinamide] stands 141 to 142 °C.

The record behind these values is patent US9187426B2, “Organic compounds” (Novartis AG, priority 2008, dated 2015).
